Data from patent US10183062B2, “Treatment for cancer” (The University of Nottingham, priority 2013, dated 2019).

Tests used:
[1] = tested on: BliNTR, NTR from Bacillus licheniformis; settings: Emptage et al., 2009, cited from earlier work
[2] = tested on: Vibrio fischeri FRase I variant F124W; settings: Swe et al., 2012, cited from earlier work
[3] = cited from earlier work
[4] = molecular target: NmeNTR, Neisseria meningitidis MC58 nitroreductase (NfnB homolog, Q9K022), wild type, SEQ ID NO: 1 (Neisseria meningitidis, UniProt Q9K022); test: CB1954 nitroreductase activity, HPLC, purified His-tagged NmeNTR; format: biochemical; settings: CB1954, cofactor NADH; 37° C., pH 7.0
From the text: Genes encoding homologs of E. coli NfnB and Bacillus amyloliquefaciens YwrO from several bacteria were cloned into an E. coli expression vector for screening (see Methods below). These were the NfnB homolog from Neisseria meningitidis MC58 (‘NmeNTR’, accession number Q9K022), the NfnB homolog from Haemophilus somnus 129PT (‘HsoNTR’, accession number ZP_00122352.1), the NfnB homolog from Burkholderia fungorum LB400 (‘BfuNTR’, accession number ZP_00029570.1), the YwrO homolog from Vibrio cholerae (‘VchYwrO’, accession number Q9KNX3), the YwrO homolog from Rhodobacter sphaeroides (‘RspYwrO’, accession number ZP_00007082.1), and two YwrO homologs from Pseudomonas aeruginosa (‘PaeYwrO1’, accession number Q9HUJ0; and ‘PaeYwrO2’, accession number Q9I4B3).
For determination of CB1954 nitroreductase kinetic parameters, six-histidine affinity-tagged enzymes were purified from cell lysates purified using a Novagen His-Bind kit in accordance with the manufacturer's instructions.
CB1954 nitroreductase activity was determined essentially as described by Anlezark (6). Reaction mixtures containing 500 μM NADH or NADPH and a small quantity of enzyme (either crude lysate or purified enzyme) were assembled in pre-warmed (to 37° C.) 100 mM sodium phosphate buffer (pH 7.0), and started with the addition of 100 μM CB1954 and prompt mixing.
To determine initial reaction rates during preliminary screening of CB1954 nitroreductase candidates, aliquots of the reaction mixtures taken at various times were injected into a Partisphere SCX (100×4.7 mm) HPLC column and eluted isocratically at 2 ml/min with 130 mM NaH2PO4 (pH 5.0). Eluates were continuously monitored at 260 nm and 325 nm, and the absorbance spectra of eluting components recorded using a photodiode array detector. Peaks were identified with reference to standards and/or by their known absorbance spectra (7) and anticipated column retention times as appropriate. Rates were determined based on the decrease in the area under the CB1954 peak over time, normalised to the known starting concentration of 100 μM using the peak from the zero timepoint sample.
To determine initial reaction rates and CB1954 nitroreduction products in later experiments with purified proteins, peaks were identified as before, and rates were determined based on the increase in the area under the 4-hydroxylamine derivative peak over time, normalised using enzymatically-synthesised 4-hydroxylamine standards.
NmeNTR and HsoNTR were each affinity-tagged, over-expressed, purified, and the CB1954 nitroreductase activities of the purified proteins characterized using the HPLC assay. The reaction products and kinetic parameters of these enzymes with respect to CB1954 and NADH were determined (Table 1). […] Moreover, the kinetic parameters of HsoNTR and NmeNTR differ dramatically from those of E. coli NfnB and other published enzymes (Table 1). […] NmeNTR would therefore approach saturation with CB1954 in a therapeutic regime using the maximum clinically-recommended dose, so the prodrug would be efficiently activated and high levels of tumour-specific cytotoxicity achieved.

HCT116 tumours = test: Mouse xenograft tumour growth delay with CB1954; format: in vivo, NMRI nu/nu mice (human colorectal HCT116 carcinoma)
Description: Human colorectal HCT116 carcinoma cells were grown in DMEM medium supplemented with 10% FBS, trypsinized and injected subcutaneously in 100 μl PBS/ . . . % matrigel at a concentration of 5.10^6 cells in the abdominal flank of adult NMRI nu/nu mice. As soon as tumours were palpable, tumour volumes were determined three times per week by measuring three orthogonal diameters using calipers. Volumes were calculated according to the formula V=A×B×C×/6. All experiments were conducted in accordance with local institutional guidelines of the University of Leuven, approved by the animal ethics committee and procedures were according to the guidelines defined by the UKCCCR (12). Treatment was initiated when tumours reached a volume of ˜250 mm^3. Five days post spore injection (5.10^7 cfu/100 μl), sham or prodrug treatment was started. CB1954 was prepared as described previously (13) and administered intraperitoneally (i.p.) at a concentration of 15 mg/kg for five consecutive days. At the end of the follow-up period, tumours and normal tissues were excised, ground and serially diluted to determine colonization levels (14). Tumour growth delay was determined for each individual tumour within the different groups as the time necessary to reach three times their initial volume at the start of the treatment. One-way ANOVA with a Tukey's posttest was used to determine statistical significance between the different growth curves.
Since strains E1 and N1 express stably-integrated NTR under the regulatory control of a strong promoter without inclusion of any antibiotic resistance gene, it was next determined whether administration of these clinically-applicable strains in combination with prodrug administration to tumour-bearing animals would result in anti-tumour efficacy. It was first evaluated whether inactivation of pyrE affected the tumour-colonizing capacity of systemically administered spores. Mice bearing subcutaneously transplanted HCT116 tumours were injected and tumour colonization tested seven days later. […] On average 10^9 cfu were found per gram of tumour tissue. Colonization was also confirmed by gram staining. In tumours, C. sporogenes vegetative cells are visible as purple, gram-positive rods (FIG. 3 C). As expected, C. sporogenes vegetative cells could not be detected in any of the normal tissues investigated. […] Spores were collected, quantified and intravenously administered at a concentration of 5.10×10^7 per animal when tumours reached a volume of ˜250 mm^3, followed five days later by sham or prodrug administration. […] In all cases, strain specific signals could be detected thereby confirming stability of the integrated construct.

NC(=O)c1cc(N2CC2)c([N+](=O)[O-])cc1[N+](=O)[O-] [CB1954, 5-(aziridin-1-yl)-2,4-dinitrobenzamide]
Kcat ([1]; CB1954): 6.4 S^−1 | Km ([1]; read-out: Km^CB1954): 30 µM | Kcat ([2]; CB1954): 26.6 S^−1 | Km ([2]; read-out: Km^CB1954): 259 µM | maximum concentration which can be safely achieved in patient serum ([3]; in vivo): 6.3 µM | peak concentrations in patient sera ([3]; safe doses): 1 to 10 µM | Kcat [4]: 4.04 (NADH) S^−1 | tumours completely disappeared, E1/CB1954 group (HCT116 tumours; CB1954 15 mg/kg i.p. x 5 days + E1 (E. coli NfnB) spores): two out of 16 | tumours completely disappeared, N1/CB1954 group (HCT116 tumours; CB1954 15 mg/kg i.p. x 5 days + N1 (NmeNTR) spores): four out of 16 | tumour growth delay, pyrE mutant spores alone or with CB1954 (HCT116 tumours; CB1954 15 mg/kg i.p. x 5 days, pyrE mutant spores): small growth delay | tumour growth delay, E1 or N1 with CB1954 (HCT116 tumours; CB1954 15 mg/kg i.p. x 5 days, E1 (NfnB) or N1 (NmeNTR) C. sporogenes spores, most pronounced for N1 (p<0.001, one way ANOVA)): significant growth delay
